Measurements reported in patent publication US20150232420A1, “TRANSGLUTAMINASE TG2 INHIBITORS, PHARMACEUTICAL COMPOSITIONS, AND METHODS OF USE THEREOF” (priority 2012, published 2015).

What follows are molecules tested against T1, human TG2 (Homo sapiens, UniProt P21980) (assay: fluorescent screening assay for human TG2). Conditions: Table 7; 20 nM TG2, 37° C.; read-out: IC50.
T1 sequence (P21980 1-687): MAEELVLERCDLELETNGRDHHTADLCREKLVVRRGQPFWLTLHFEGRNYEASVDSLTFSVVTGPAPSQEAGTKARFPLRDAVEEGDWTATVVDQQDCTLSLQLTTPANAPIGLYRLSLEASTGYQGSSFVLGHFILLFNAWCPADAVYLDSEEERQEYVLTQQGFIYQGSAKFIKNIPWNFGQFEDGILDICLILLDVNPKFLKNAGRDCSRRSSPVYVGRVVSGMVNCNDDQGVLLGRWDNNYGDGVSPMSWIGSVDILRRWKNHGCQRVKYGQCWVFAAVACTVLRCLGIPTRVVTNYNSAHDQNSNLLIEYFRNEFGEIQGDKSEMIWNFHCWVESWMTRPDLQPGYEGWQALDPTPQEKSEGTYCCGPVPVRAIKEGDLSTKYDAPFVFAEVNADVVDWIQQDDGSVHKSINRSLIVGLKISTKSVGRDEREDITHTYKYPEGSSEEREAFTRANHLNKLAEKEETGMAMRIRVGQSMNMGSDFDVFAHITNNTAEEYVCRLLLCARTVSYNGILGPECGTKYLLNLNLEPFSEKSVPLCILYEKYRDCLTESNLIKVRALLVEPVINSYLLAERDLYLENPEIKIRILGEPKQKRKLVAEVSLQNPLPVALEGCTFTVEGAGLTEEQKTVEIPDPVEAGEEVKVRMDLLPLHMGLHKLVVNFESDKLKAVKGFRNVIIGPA
Assay type: biochemical
Experimental: The fluorescent screening assay for human TG2 was performed as described herein: Assay conditions were 20 nM TG2, 8 μM N,N-dimethylated Casein (NMC) and 16 μM K×D (used for all transglutaminase assays) in 25 mM Hepes, pH 7.4, 250 mM NaCl, 2 mM MgCl2, 0.5 mM CaCl2, 0.2 mM DTT, 0.05% Pluronic F-127 at 37° C. A time point was taken with a microplate reader (Safire or Ultra, Tecan; ex: 350 nm, em: 535 nm) every 3 minutes for up to 2 hours and the initial linear reaction progress was used to determine the reaction velocity as a measure for enzyme activity. Assay conditions were identical for human TG6 and similar for human TG1 and mouse TG2 apart from enzyme concentration (mTG2 at 5 nM; TG1 at 10 nM) and CaCl2 concentration (0.2 mM for mTG2; 0.05 mM for TG1). Factor XIIIa was activated using 0.1 μg/μl thrombin (Sigma) in 35 mM Tris pH 8.0 for 20 min at 30° C. and the transamidation reaction was performed with 20 nM Factor XIIIa in 50 mM Tris pH 8.0, 1.25 mM CaCl2, 0.05% Pluronic, 0.2 mM DTT. TG3 was activated with 0.02 μg/μl thrombin under the same conditions as Factor XIIIa and assay conditions were 10 nM TG3 in 50 mM Hepes, pH 8, 20 mM CaCl2, 0.2 mM DTT, 0.05% Pluronic F-127.

Row | IC50 | SMILES
1 | 1000 to 100000 nM | C=CC(=O)NCCCC[C@H](NC(=O)OCc1ccccc1C(F)(F)F)C(=O)O [(2S)-6-(prop-2-enamido)-2-[({[2-(trifluoromethyl)phenyl]methoxy}carbonyl)amino]hexanoic acid]
2 | 1000 to 100000 nM | C=CC(=O)NCCCC[C@H](NC(=O)OCc1ccccc1)C(=O)N1CCCCC1 [benzyl N-[(2S)-1-oxo-1-(piperidin-1-yl)-6-(prop-2-enamido)hexan-2-yl]carbamate]
3 | 1000 to 100000 nM | C=CC(=O)NCCCC[C@H](NC(=O)OCc1cccc(C(F)(F)F)c1)C(=O)O [(2S)-6-(prop-2-enamido)-2-[({[3-(trifluoromethyl)phenyl]methoxy}carbonyl)amino]hexanoic acid]
4 | 100 to 1000 nM | C=CC(=O)NCCCC[C@H](NC(=O)OCc1ccccc1)C(=O)N1CCN(c2ccc3ccccc3c2)CC1 [benzyl N-[(2S)-1-[4-(naphthalen-2-yl)piperazin-1-yl]-1-oxo-6-(prop-2-enamido)hexan-2-yl]carbamate]
5 | 1000 to 100000 nM | C=CC(=O)NCCCC[C@H](NC(=O)OCc1ccc([N+](=O)[O-])cc1)C(=O)O [(2S)-2-({[(4-nitrophenyl)methoxy]carbonyl}amino)-6-(prop-2-enamido)hexanoic acid]
6 | 100 to 1000 nM | C=CC(=O)NCCCC[C@H](NC(=O)OCc1ccccc1)C(=O)N1CCN(C(=O)OC(C)(C)C)CC1 [tert-butyl 4-[(2S)-2-{[(benzyloxy)carbonyl]amino}-6-(prop-2-enamido)hexanoyl]piperazine-1-carboxylate]
7 | 100 to 1000 nM | C=CC(=O)NCCCC[C@H](NC(=O)OCc1ccccc1)C(=O)N1Cc2ccccc2C1 [benzyl N-[(2S)-1-(2,3-dihydro-1H-isoindol-2-yl)-1-oxo-6-(prop-2-enamido)hexan-2-yl]carbamate]
8 | 1000 to 100000 nM | C=CC(=O)NCCCC[C@@H](CO)NC(=O)OCc1ccccc1 [benzyl N-[(2S)-1-hydroxy-6-(prop-2-enamido)hexan-2-yl]carbamate]
9 | 100 to 1000 nM | C=CC(=O)NCCCC[C@H](NC(=O)OCc1ccccc1)C(=O)N1CCN(c2ncccc2C)CC1 [benzyl N-[(2S)-1-[4-(3-methylpyridin-2-yl)piperazin-1-yl]-1-oxo-6-(prop-2-enamido)hexan-2-yl]carbamate]
10 | 1000 to 100000 nM | C=CC(=O)NCCCC[C@H](NC(=O)OCc1c(F)cccc1F)C(=O)O [(2S)-2-({[(2,6-difluorophenyl)methoxy]carbonyl}amino)-6-(prop-2-enamido)hexanoic acid]
11 | 100 to 1000 nM | C=CC(=O)NCCCC[C@H](NC(=O)OCc1ccccc1)C(=O)N1CCN(c2nccs2)CC1 [benzyl N-[(2S)-1-oxo-6-(prop-2-enamido)-1-[4-(1,3-thiazol-2-yl)piperazin-1-yl]hexan-2-yl]carbamate]
12 | 100 to 1000 nM | C=CC(=O)NCCCC[C@H](NC(=O)OCc1ccccc1)C(=O)N1CCN(c2ccccn2)CC1 [benzyl N-[(2S)-1-oxo-6-(prop-2-enamido)-1-[4-(pyridin-2-yl)piperazin-1-yl]hexan-2-yl]carbamate]
13 | 1000 to 100000 nM | C=CC(=O)NCCC1C[C@@H](C(=O)OC)N(C(=O)OC(C)(C)C)C1 (stereo partly drawn) [1-tert-butyl 2-methyl (2S)-4-[2-(prop-2-enamido)ethyl]pyrrolidine-1,2-dicarboxylate]
14 | < 100 nM | C=CC(=O)NCCCC[C@H](NC(=O)OCc1ccccc1)C(=O)N1CCN(c2cc(Cl)ccc2OC)CC1 [benzyl N-[(2S)-1-[4-(5-chloro-2-methoxyphenyl)piperazin-1-yl]-1-oxo-6-(prop-2-enamido)hexan-2-yl]carbamate]
15 | 100 to 1000 nM | C=CC(=O)NCCCC[C@H](NC(=O)OCc1ccccc1)C(=O)N1CCC(F)(F)CC1 [benzyl N-[(2S)-1-(4,4-difluoropiperidin-1-yl)-1-oxo-6-(prop-2-enamido)hexan-2-yl]carbamate]
16 | 1000 to 100000 nM | C=CC(=O)NCCCC[C@H](NC(=O)OCc1ccccc1)C(=O)N1CCC1 [benzyl N-[(2S)-1-(azetidin-1-yl)-1-oxo-6-(prop-2-enamido)hexan-2-yl]carbamate]
17 | 1000 to 100000 nM | C=CC(=O)NCCCC[C@H](NC(=O)OCc1ccccc1)C(=O)O [(2S)-2-{[(benzyloxy)carbonyl]amino}-6-(prop-2-enamido)hexanoic acid]

Row | IC50 | SMILES
18 | < 100 nM | C=CC(=O)NCCCC[C@H](NC(=O)OCc1ccccc1)C(=O)N1CCN(C(=O)C23CC4CC(CC(C4)C2)C3)CC1 [benzyl N-[(2S)-1-[4-(adamantane-1-carbonyl)piperazin-1-yl]-1-oxo-6-(prop-2-enamido)hexan-2-yl]carbamate]
19 | 100 to 1000 nM | C=CC(=O)NCCCC[C@H](NC(=O)OCc1ccccc1)C(=O)N1CCOCC1 [benzyl N-[(2S)-1-(morpholin-4-yl)-1-oxo-6-(prop-2-enamido)hexan-2-yl]carbamate]
20 | 1000 to 100000 nM | C=CC(=O)NCCCC[C@H](NC(=O)OCc1ccc2ccccc2c1)C(=O)O [(2S)-2-{[(naphthalen-2-ylmethoxy)carbonyl]amino}-6-(prop-2-enamido)hexanoic acid]
21 | 1000 to 100000 nM | C=CC(=O)NCCCC[C@H](NC(=O)OCc1cccc2ccccc12)C(=O)O [(2S)-2-{[(naphthalen-1-ylmethoxy)carbonyl]amino}-6-(prop-2-enamido)hexanoic acid]
22 | 1000 to 100000 nM | C=CC(=O)NCCCC[C@H](NC(=O)OCc1ccc(F)cc1)C(=O)O [(2S)-2-({[(4-fluorophenyl)methoxy]carbonyl}amino)-6-(prop-2-enamido)hexanoic acid]
23 | 1000 to 100000 nM | C=CC(=O)NCCCC[C@H](NC(=O)OCc1ccccc1Cl)C(=O)O [(2S)-2-({[(2-chlorophenyl)methoxy]carbonyl}amino)-6-(prop-2-enamido)hexanoic acid]
24 | 1000 to 100000 nM | C=CC(=O)NCCCC[C@H](NC(=O)OCc1ccc(C(C)(C)C)cc1)C(=O)O [(2S)-2-({[(4-tert-butylphenyl)methoxy]carbonyl}amino)-6-(prop-2-enamido)hexanoic acid]
25 | 100 to 1000 nM | C=CC(=O)NCCCC[C@H](NC(=O)c1ccccc1)C(=O)N1CCN(c2cccc(C)n2)CC1 [N-[(5S)-6-[4-(6-methylpyridin-2-yl)piperazin-1-yl]-6-oxo-5-(phenylformamido)hexyl]prop-2-enamide]
26 | 1000 to 100000 nM | C=CC(=O)NCCCC[C@@H](NC(=O)OCc1ccccc1)C(=O)O [(2R)-2-{[(benzyloxy)carbonyl]amino}-6-(prop-2-enamido)hexanoic acid]
27 | 100 to 1000 nM | C=CC(=O)NCCCC[C@H](NC(=O)OCc1ccccc1)C(=O)N1CCN(C(=O)C2CCOCC2)CC1 [benzyl N-[(2S)-1-[4-(oxane-4-carbonyl)piperazin-1-yl]-1-oxo-6-(prop-2-enamido)hexan-2-yl]carbamate]
28 | 100 to 1000 nM | C=CC(=O)NCCCC[C@H](NC(=O)OCc1ccccc1)C(=O)N1CCCC1 [benzyl N-[(2S)-1-oxo-6-(prop-2-enamido)-1-(pyrrolidin-1-yl)hexan-2-yl]carbamate]
29 | 100 to 1000 nM | C=CC(=O)NCCCC[C@H](NC(=O)OCc1ccccc1)C(=O)N1CCN(C(=O)N2CCOCC2)CC1 [benzyl N-[(2S)-1-[4-(morpholine-4-carbonyl)piperazin-1-yl]-1-oxo-6-(prop-2-enamido)hexan-2-yl]carbamate]
30 | 100 to 1000 nM | C=CC(=O)NCCCC[C@H](NC(=O)OCc1ccccc1)C(=O)N1CCN(c2ncccc2C(F)(F)F)CC1 [benzyl N-[(2S)-1-oxo-6-(prop-2-enamido)-1-{4-[3-(trifluoromethyl)pyridin-2-yl]piperazin-1-yl}hexan-2-yl]carbamate]
31 | 1000 to 100000 nM | C=CC(=O)NCCCC[C@H](NC(=O)OCc1ccccc1)C(=O)N(CC)CC [benzyl N-[(1S)-1-(diethylcarbamoyl)-5-(prop-2-enamido)pentyl]carbamate]
32 | 100 to 1000 nM | C=CC(=O)NCCCC[C@H](NC(=O)OC(C)(C)C)C(=O)N1CCN(c2cccc(C)n2)CC1 [tert-butyl N-[(2S)-1-[4-(6-methylpyridin-2-yl)piperazin-1-yl]-1-oxo-6-(prop-2-enamido)hexan-2-yl]carbamate]
33 | 1000 to 100000 nM | C=CC(=O)NCCCC[C@H](NC(=O)OCC1c2ccccc2-c2ccccc21)C(=O)O [(2S)-2-{[(9H-fluoren-9-ylmethoxy)carbonyl]amino}-6-(prop-2-enamido)hexanoic acid]
34 | 1000 to 100000 nM | C=CC(=O)NCCCC[C@H](NC(=O)OCc1ccc(C(F)(F)F)cc1)C(=O)O [(2S)-6-(prop-2-enamido)-2-[({[4-(trifluoromethyl)phenyl]methoxy}carbonyl)amino]hexanoic acid]
